2 compounds from patent US10047115B2, “Cyclic dinucleotides useful for the treatment of inter alia cancer” (priority 2015, dated 2018) can be followed below.

This experiment deals with Female Balb/C mice. Kind of experiment: Adjuvant activity in mice, HBsAg model, serum ELISA antibody titers. The settings on record: for HBsAg-specific serum IgG: HBsAg administered IM with adjuvant; for Anti-HBsAg titers compared with the nonadjuvanted benchmark: mice vaccinated IM.

Protocol: This objective of this study was to evaluate the potential of STING agonists of the present invention to function as adjuvants in mice using the HBsAg model.
Female Balb/C Mice were Vaccinated IM
Vaccines were delivered intramuscularly two times at 21 day intervals, and sera were evaluated for systemic antibody responses. Spleens (3 mice/group) were collected for Luminex/ICS analysis.
Sera were harvested 14dp1 and 14dp2 vaccination. Serum was evaluated by ELISA for anti-HBsAg IgG, IgG1, and IgG2a titers.

Regarding `Nc1nc2c(ncn2[C@@H]2O[C@@H]3COP(=O)(O)O[C@H]4[C@@H](F)[C@H](n5cnc6c(N)ncnc65)O[C@@H]4COP(=O)(O)O[C@@H]2[C@@H]3O)c(=O)[nH]1` [Example 1, (1R,6R,8R,9R,10R,15R,17R,18R)-17-(2-Amino-6-oxo-6,9-dihydro-1H-purin-9-yl)-8-(6-amino-9H-purin-9-yl)-9-fluoro-3,12,18-trihydroxy-2,4,7,11,13,16-hexaoxa-3λ^5,12λ^5-diphosphatricyclo[13.2.1.0^6,10]octadecane-3,12-dione], the “HBsAg-specific serum IgG” value is on record as “high levels” and the “Anti-HBsAg titers compared with the nonadjuvanted benchmark” value is recorded as “significantly higher”. Also, for the setting “four doses, IM”, the “HBsAg-specific IgG levels, dose response” value is on record as “dose responsive”. Besides, for the setting “relative to dose”, the “antibody titers compared with cGAMP” value is recorded as “no significant differences”.
With `Nc1nc2c(ncn2[C@@H]2O[C@@H]3COP(=O)(O)O[C@H]4[C@@H](O)[C@H](n5cnc6c(N)ncnc65)O[C@@H]4COP(=O)(O)O[C@@H]2[C@@H]3O)c(=O)[nH]1` [cGAMP, reference compound], the “HBsAg-specific serum IgG” value is recorded as “high levels” and the “Anti-HBsAg titers compared with the nonadjuvanted benchmark” value was “significantly higher”.
